Results as given in patent US11083725B2 (priority 2014, dated 2021).
Where two headings read alike, the source gives them in different places.

Columns and labels:
NHBE cells = experiment: cells; assay type: cell-based, human
CA09 = experiment: microbe, parasite or virus in culture; assay type: cell-based, influenza virus H1N1 strain A/CA/04/2009; set-up: TCID50 (per mL): unit not given here; conditions: for log reduction at 10 pM / log reduction at 0.0001 µM / log reduction at 0.001 µM / log reduction at 0.01 µM / log reduction at 0.1 µM / log reduction at 1 µM / log reduction at 10 µM / log reduction at 100 µM: NHBE, read-out: TCID50 (per mL)
[1] = read-out: IC50, Prophylactic Treatment, Control
[2] = read-out: IC50, Prophylactic Treatment, Viral Infected
[3] = […], dose response 4 nM to 10 μM, […], read-out: IC50, Therapeutic Treatment, Viral Infected
[4] = […], prophylactic schedule, dose response 4 nM to 10 μM, […], read-out: IC50, Prophylactic Treatment, Control
[5] = […], therapeutic schedule, dose response 4 nM to 10 μM, […], read-out: IC50, Therapeutic Treatment, Control
[6] = Homo sapiens, NHBE, 72 h, […], prophylactic schedule, dose response 4 nM to 10 μM, […], read-out: IC50, Prophylactic Treatment, Control
[7] = Therapeutic Drug Treatment, Drug Dose 10 pM, […]
[8] = Therapeutic Drug Treatment, Drug Dose 100 pM, […]
[9] = Therapeutic Drug Treatment, Drug Dose 1 nM, […]
[10] = Therapeutic Drug Treatment, Drug Dose 10 nM, […]
[11] = Therapeutic Drug Treatment, Drug Dose 100 nM, […]
[12] = Therapeutic Drug Treatment, Drug Dose 1 μM, […]
[13] = Therapeutic Drug Treatment, Drug Dose 10 μM, […]
[14] = Therapeutic Drug Treatment, Drug Dose 100 μM, […]
[15] = Homo sapiens, NHBE, read-out: IC50, Prophylactic Treatment, Viral Infected
[16] = follow up validation titer, therapeutic treatment
[17] = […], dose response 4 nM to 10 μM, […], read-out: IC50, Prophylactic Treatment, Viral Infected

NOCC(=O)O
IC50 (NHBE cells; [1]): 5000 nM | IC50 (NHBE cells; [2]): 10000 nM

O=C([O-])CC(O)C(=O)[O-].[Na+].[Na+] (racemic) [DISODIUM DL-MALATE HYDRATE]
IC50 (NHBE cells; [3]): 7000 nM | IC50 (NHBE cells; [4]): 30 nM

O=[N+]([O-])c1ccc(O)c([N+](=O)[O-])c1 [2,4-DINITROPHENOL]
IC50 (NHBE cells; [3]): 4000 nM | IC50 (NHBE cells; [4]): 380 nM | IC50 (NHBE cells; [5]): 8000 nM

N#C/C(=C\c1ccc(O)cc1)C(=O)O [ALPHA-CYANO-4-HYDROXYCINNAMIC ACID]
IC50 (NHBE cells; [4]): 3000 nM

CC(C)c1c(C(=O)Nc2ccccc2)c(-c2ccccc2)c(-c2ccc(F)cc2)n1CC[C@@H](O)C[C@@H](O)CC(=O)O [ATORVASTATIN CALCIUM]
IC50 (NHBE cells; [1]): 3000 nM | IC50 (NHBE cells; [2]): 3000 nM

Cc1cc([C@@H](C)Nc2ccccc2C(=O)O)c2nc(N3CCOCC3)cc(=O)n2c1 [AZD-6482]
IC50 (NHBE cells; [6]): 5000 nM

CC(C)(Oc1ccc(CCNC(=O)c2ccc(Cl)cc2)cc1)C(=O)O [BEZAFIBRATE]
IC50 (NHBE cells; [6]): 7200 nM

CC(C)CCN1c2nc(Nc3cc(F)c(O)c(F)c3)ncc2N(C)C(=O)C1C (stereo not shown) [BI-D1870]
Cell Death Prophylactic (NHBE cells): C > V | Viral Titer Prophylactic (CA09): Reduced | log reduction at 10 pM (CA09): 0.28 | log reduction at 0.0001 µM (CA09): 1.18 | log reduction at 0.001 µM (CA09): 0.78 | log reduction at 0.01 µM (CA09): 0.2 | log reduction at 0.1 µM (CA09): 0.99 | log reduction at 1 µM (CA09): 0.84 | log reduction at 10 µM (CA09): 0.6 | log reduction at 100 µM (CA09): 0.65

[O]=[V]1(=[O])(=[O])(=[O])[n+]2cccc3ccc4ccc[n+]1c4c32 [BP/(PHEN)]
Cell Death Prophylactic (NHBE cells): V > C | TCID50 (per mL) (CA09; [7]): −0.50 | TCID50 (per mL) (CA09; [8]): −0.54 | TCID50 (per mL) (CA09; [9]): −0.44 | TCID50 (per mL) (CA09; [10]): −0.74 | TCID50 (per mL) (CA09; [11]): −0.13 | TCID50 (per mL) (CA09; [12]): −0.32 | TCID50 (per mL) (CA09; [13]): −0.10 | TCID50 (per mL) (CA09; [14]): −0.18

OO.OO.[K+].[OH-].[V].c1cnc2c(c1)ccc1cccnc12 [BPV(PHEN)]
IC50 (NHBE cells; [5]): 5 nM

C=C(C)[C@@H]1CC[C@]2(C(=O)O)CC[C@]3(C)[C@H](CC[C@@H]4[C@@]5(C)CC[C@H](O)C(C)(C)[C@@H]5CC[C@]43C)[C@@H]12 [Betulinic Acid]
IC50 (NHBE cells; [15]): 2000 nM | log reduction at 10 pM (CA09): 0.37 | log reduction at 0.0001 µM (CA09): 0.63 | log reduction at 0.001 µM (CA09): 0.51 | log reduction at 0.01 µM (CA09): 0.55 | log reduction at 0.1 µM (CA09): 0.31 | log reduction at 1 µM (CA09): 0.96 | log reduction at 10 µM (CA09): 0.61 | log reduction at 100 µM (CA09): 0.59

C=C1C(=O)O[C@H](CCCCCCCC)[C@H]1C(=O)O [C75]
Cell Death Prophylactic (NHBE cells): C > V | Cell Death Therapeutic (NHBE cells): C = V

COc1cc(/C=C/C(=O)CC(=O)/C=C/c2ccc(O)c(OC)c2)ccc1O [CURCUMIN]
IC50 (NHBE cells; [6]): 1 nM

CCc1c(-c2ccccc2)c(-c2ccccc2)nn1-c1ccccc1-c1cccc(OCC(=O)O)c1 [FABP4 Inhibitor]
Cell Death Prophylactic (NHBE cells): V > C | IC50 (NHBE cells; Homo sapiens, NHBE, 72 h, read-out: IC50, Therapeutic Treatment, Control): 4000 nM | Viral Titer Prophylactic (CA09): Reduced

CSCC[C@H](NC(=O)[C@H](Cc1ccccc1)NC[C@@H](NC[C@@H](N)CS)C(C)C)C(=O)O [FTASE INHIBITOR I]
IC50 (NHBE cells; [3]): 200 nM | IC50 (NHBE cells; [5]): 90 nM

CC(C)n1c(/C=C/C(O)CC(O)CC(=O)O)c(-c2ccc(F)cc2)c2ccccc21 (stereo not shown) [Fluvastatin]
log reduction at 10 pM (CA09; [7]): 0.16 | log reduction at 0.0001 µM (CA09; [8]): 0.5 | log reduction at 0.001 µM (CA09; [9]): 0.18 | log reduction at 0.01 µM (CA09; [10]): 0.34 | log reduction at 0.1 µM (CA09; [11]): 0.15 | log reduction at 1 µM (CA09; [12]): 0.51 | log reduction at 10 µM (CA09; [13]): 0.75 | log reduction at 100 µM (CA09; [14]): -0.33

CS(=O)(=O)N1CCN(Cc2cc3nc(-c4cccc5[nH]ncc45)nc(N4CCOCC4)c3s2)CC1 [GDC-0941]
Cell Death Prophylactic (NHBE cells): C = V | Cell Death Therapeutic (NHBE cells): C = V | NHBE cell survival / cell death after infection (NHBE cells): no effect

O=C1Nc2ccc3ncsc3c2/C1=C/c1cnc[nH]1 [IMIDAZOLO-OXINDOLE PKR INHIBITOR C16]
IC50 (NHBE cells; [5]): 70 nM

NC(=O)N1CCC(CC(=O)N2CCC([C@H]3c4ncc(Br)cc4CCc4cc(Cl)cc(Br)c43)CC2)CC1 [Lonafarnib]
Cell Death Prophylactic (NHBE cells): C > V | IC50 (NHBE cells; Homo sapiens, NHBE, 72 h, read-out: IC50, Prophylactic Treatment, Control): 1900 nM | IC50 (NHBE cells; [15]): 1300 nM | log reduction at 10 pM (CA09): 0.04 | log reduction at 0.0001 µM (CA09): 0.15 | log reduction at 0.001 µM (CA09): 0.56 | log reduction at 0.01 µM (CA09): -0.06 | log reduction at 0.1 µM (CA09): 0.3 | log reduction at 1 µM (CA09): 1.16 | log reduction at 10 µM (CA09): 0.28 | log reduction at 100 µM (CA09): 1.25

O=C(O)c1nn(Cc2ccc(Cl)cc2Cl)c2ccccc12 [Lonidamine]
log reduction at 10 pM (CA09): 0.94 | log reduction at 0.0001 µM (CA09): 0.54 | log reduction at 0.001 µM (CA09): 0.54 | log reduction at 0.01 µM (CA09): 0.67 | log reduction at 0.1 µM (CA09): 0.24 | log reduction at 1 µM (CA09): 0.24 | log reduction at 10 µM (CA09): 0.18 | log reduction at 100 µM (CA09): 0.65

O=C(O)Cn1nnc(-c2cc(N3CCC(Oc4cc(F)ccc4Br)CC3)no2)n1 [MK-8245]
IC50 (NHBE cells; [6]): 5000 nM

CO/C(=C\C(N)=O)[C@H](C)[C@H](/C=C/c1csc(-c2csc([C@@H](C)/C=C/C=C/C(C)C)n2)n1)OC [Myxothiazol]
Cell Death Prophylactic (NHBE cells): C = V | Cell Death Therapeutic (NHBE cells): C > V

Nc1cc(C(F)(F)F)c(-c2cc(N3CCOCC3)nc(N3CCOCC3)n2)cn1 [NVP-BKM120]
Cell Death Prophylactic (NHBE cells): C = V | Cell Death Therapeutic (NHBE cells): C = V | NHBE cell survival / cell death after infection (NHBE cells): no effect | log reduction at 10 pM (CA09): 0 | log reduction at 0.0001 µM (CA09): 0.4 | log reduction at 0.001 µM (CA09): 0.76 | log reduction at 0.01 µM (CA09): 0 | log reduction at 0.1 µM (CA09): 0.29 | log reduction at 1 µM (CA09): -0.08 | log reduction at 10 µM (CA09): 0.07 | log reduction at 100 µM (CA09): -0.37

COc1ccc(Cc2nnc(NS(=O)(=O)c3ccccc3)s2)cc1 [OU749]
log reduction at 10 pM (CA09): 0 | log reduction at 0.0001 µM (CA09): 0.65 | log reduction at 0.01 µM (CA09): 0.35 | log reduction at 10 µM (CA09): 0.46 | Viral Titer Therapeutic (CA09; [16]): Reduced

CC[C@@H]1/C=C/C=C/C[C@H](C)[C@@H](O)[C@](C)(O)C(=O)[C@H](C)[C@@H](O)[C@H](C)C(=O)[C@H](C)[C@@H](O)[C@H](C)/C=C/C(=O)O[C@H]2[C@@H](C)[C@@H](CC1)O[C@@]1(CC[C@@H](C)C(CC(C)O)O1)[C@@H]2C (stereo partly shown) [Oligomycin A]
Cell Death Prophylactic (NHBE cells): C > V | Cell Death Therapeutic (NHBE cells): C > V | Viral Titer Therapeutic (CA09): Reduced | log reduction at 10 pM (CA09): 0.92 | log reduction at 0.0001 µM (CA09): 0.23 | log reduction at 0.001 µM (CA09): 0.51 | log reduction at 0.01 µM (CA09): 0.6 | log reduction at 0.1 µM (CA09): 0.38 | log reduction at 1 µM (CA09): 0.77 | log reduction at 10 µM (CA09): 0.66 | log reduction at 100 µM (CA09): 0.28

CCn1nnc2c(N3CCOCC3)nc(-c3ccc(NC(=O)Nc4ccc(C(=O)N5CCN(C)CC5)cc4)cc3)nc21 [PKI-402]
Cell Death Prophylactic (NHBE cells): C = V | Cell Death Therapeutic (NHBE cells): C = V | NHBE cell survival / cell death after infection (NHBE cells): no effect | IC50 (NHBE cells; [17]): 3000 nM | IC50 (NHBE cells; [5]): 2 nM

CC(C)c1nc(N(C)S(C)(=O)=O)nc(-c2ccc(F)cc2)c1/C=C/[C@@H](O)C[C@@H](O)CC(=O)O [Rosuvastatin]
log reduction at 10 pM (CA09): 0 | log reduction at 0.0001 µM (CA09): 0.15 | log reduction at 0.001 µM (CA09): 0.76 | log reduction at 0.01 µM (CA09): 0.66 | log reduction at 0.1 µM (CA09): 0.41 | log reduction at 1 µM (CA09): 1 | log reduction at 10 µM (CA09): 0.79 | log reduction at 100 µM (CA09): 0.64 | Viral Titer Therapeutic (CA09; [16]): Reduced

CCC(C)(C)C(=O)O[C@H]1C[C@@H](C)C=C2C=C[C@H](C)[C@H](CC[C@@H]3C[C@@H](O)CC(=O)O3)[C@H]21 [SIMVASTATIN]
IC50 (NHBE cells; Homo sapiens, NHBE, 72 h, […], therapeutic schedule, dose response 4 nM to 10 μM, […], read-out: IC50, Therapeutic Treatment, Control): 5 nM

CCCCCCCCCCCCCCOc1ccc(C(=O)O)o1 [TOFA]
IC50 (NHBE cells; [4]): 4000 nM

LB 42708
IC50 (NHBE cells; [5]): 4.5 nM

OLIGOMYCIN (A SHOWN)
IC50 (NHBE cells; read-out: IC50, Therapeutic Treatment, Control): 1000 nM | IC50 (NHBE cells; read-out: IC50, Therapeutic Treatment, Viral Infected): 4 nM

PF 429242
IC50 (NHBE cells; [17]): 6000 nM
